Measurements taken from PMC11428291, “Peptide and Protein Cysteine Modification Enabled by Hydrosulfuration of Ynamide” (ACS Central Science, 2024).

Experiments:
[1] = Water solubility of ynamides (qualitative); type: physicochemical; details: qualitative statement
Protocol: To this end, N-methylynetoluenesulfonamide (MYTsA, 2a), the first-generation ynamide coupling reagent for peptide synthesis,[39] was tested in our model reaction as a reference. […] Further optimization was performed to implement this chemistry under biocompatible conditions, such as aqueous media, near-neutral pH (6–8), and physiological temperature. In parallel, the poor water-solubility of 2a led to a sluggish reaction in an MeCN/phosphate buffer mixture (pH 8, 3:7), giving 3aa in 80% yield over 24 h. Enhancing the solubility by replacing the methyl group of R^2 with a 2-hydroxyethyl group (2b) led to a more efficient reaction, with an 89% yield of 3ab. […] Substituting the p-toluenesulfonyl (Ts) group of 2a with a trifluoromethylsulfonyl (triflyl, Tf, 2e) group enhanced both the solubility in water and the reaction efficiency due to its stronger electron-withdrawing ability and increased hydrophilicity. This modification facilitated the reaction to completion within 20 min in phosphate buffer with minimal MeCN (5%), yielding the product (3ae) as a single Z-isomer in 95% yield, confirmed by NMR (Z:E > 99:1; see zoom-in ^1H NMR spectra in Figure 2b and details in SI). […] This underscores the versatility of ynamide functionalization via R^2 group modification, promising broad applicability in synthesizing diverse conjugates. […]

[2] = Reaction rate study: hydrosulfuration of glutathione (GSH) to ynamide; details: pseudo-first order, ynamide 0.25 mM, GSH 2.5, 5 and 10 mM, 5% MeCN, pH 8.0, 0.2 M PBS, 37 °C, UV-Visible absorbance at 244 nm, triplicate
Protocol: In line with our proposal, the conjugation of the optimal ynamide (2e) and peptide (1a) was sensitive to pH and was sluggish under neutral conditions (pH 6–7.5, Figure S14). […] To further dissect the reaction mechanism, the reaction was carried out in the presence of different types of radical scavengers; no negative effect on the reaction efficacy was observed. In addition, the thiyl radical chemistry of ynamide was examined in aqueous medium, but no reaction was detected (see the SI for details, Schemes S15–S16).
9) Reaction Rate study of the Peptide Conjugates
HO N N OH PBS, pH = 8.0, MeCN, 37 °CHONN OH
Figure S64.Reaction Rate study of the Peptide Conjugates
The reaction between Ynamide (2e) and glutathione (GSH) was measured under pseudo- first order conditions with 10, 20 and 40 equivalents of GSH by real-time monitor of conjugate reactio n using UV-Visible absorbance at 244 nm (max absorbance wavelength for 3me). Solutions were prepared in MeCN (5%), pH 8.0, 0.2 M PBS with Ynamide (0.25 mM) and GSH (2.5 mM, 5 mM and 10 mM). Data was recorded for 2-5 min and performed in triplicate at 37 ℃. The averages of the observed rates (kobs), determined by nonlinear regression analysis of the data points were plotted against the concentration of GSH and the bimolecular rate constant k2, […]
8. Trastuzumab R eduction […]

[3] = type: physicochemical; details: conjugate 10 μM, 10 mM H2O2 in buffer, pH 4, 8 and 10, 37 °C, 24 h (Figure S59)
Description: (§1) The stability of the conjugated products is of the utmost importance for developing a powerful peptide and protein modification strategy.[6] […] Moreover, the cleavage of 3ae in the presence of external thiol to regenerate the unmodified 1a, which occurred in other methods,[16b],[33a] was not detected in our hands (using 2-mercaptoethanol, Figure S58). In contrast, the iodoacetamide (IAM) peptide conjugate decomposed under the aforementioned conditions (Figures S61–S63).
(§2) Figure S58.Stability of 3ae ( 1mM) in the presence of external thiol
(§3) 4) Stability of 3ae (10 μM) when treated with large excess ((10mM H2O2 in buffer) of
Figure S59.Stability of 3ae ( 10μM) when tr eated with large excess of H 2O2 (at pH 4, […]
7) Stability of iodoacetamide labelling product (10 μM) when treated with large
excess ((10mM H2O2 in buffer)of H 2O2 (at pH 2 and 13 at 37 °C) for 24 h
Figure S62.Stability of iodoacetamide labelling product (10 μM) when treated with
large excess of H2O2 (at pH 2 and 13at 37 °C)
8) Stability of iodoacetamide labelling product (10 μM) when treated with bovine
Figure S63.Stability of iodoacetamide labelling product (10 μM) when treated with […]

[4] = Stability of peptide conjugate in the presence of external thiol (2-mercaptoethanol); type: physicochemical; details: conjugate 1 mM, pH 8.0 (Figure S58)
Description: as §1
7. Stability Study and Reaction Rate study of the Peptide Conjugates
1) Stability study of the peptide conjugate 3ae
Figure S56.Stability study of the peptide conjugate 3ae
2) Stability of 3ae (1 mM) in buffers at pH 2.0, pH 8.0, pH 10.0, pH 13.0 at 37 °C for
Figure S57.Stability of 3ae ( 1mM) in buffers at pH 2.0, pH 8.0,pH 10.0,pH 13.0
3) Stability of 3ae (1 mM) in the presence of external thiol ( 2- mercaptoethanol)，pH […]
as §2, §3
Figure S59.Stability of 3ae ( 10μM) when tr eated with large excess of H 2O2 (at pH 4,

Compound: C#CN(C)S(=O)(=O)c1ccc(C)cc1 [2a, N-methylynetoluenesulfonamide]
- Water-solubility [1]: poor

Compound: C#CN(CCO)S(=O)(=O)C(F)(F)F [2e]
- Apparent second-order rate constant for the thiol conjugation (k2, app.) [2]: 0.2399 ± 0.002 M^–1 s^–1
- Solubility in water relative to 2a ([1]; compared with 2a): enhanced

Compound: CCOC(=O)[C@H](CS/C=C\N(CCO)S(=O)(=O)C(F)(F)F)NC(=O)[C@H](C)NC(=O)OC(C)(C)C [3ae]
- β-syn elimination when treated with a large excess of H2O2 [3]: did not undergo β-syn elimination
- Cleavage in the presence of external thiol to regenerate the unmodified 1a [4]: not detected
